# Laboratory results taken from patent publication US8476265B2, “Compounds-801” (AstraZeneca AB, priority 2010, dated 2013).
# Counter-ions that a name gives are not always drawn.
# Legend:
# [1] = target: T1, human muscarinic acetylcholine M3 receptor (Homo sapiens, UniProt P20309); assay: Muscarinic 3 receptor binding assay ([3H]NMS competition, SPA), pIC50; conditions: [3H]NMS 0.1 nM, CHO-K1 cell membranes expressing human M3 receptor
# T1 construct: expressed in transfected cells; host or cells: CHO-K1 (Chinese Hamster Ovary) cell membranes
# Procedure: Muscarinic 3 Receptor Binding Assay
# The affinity (pIC50) of compounds binding to the M3 receptor is determined by competition binding of [^3H]N-methyl scopolamine (NMS) to CHO-K1 (Chinese Hamster Ovary) cell membranes expressing the human muscarinic acetylcholine M3 receptor (M3-ACh) in a scintillation proximity assay (SPA) format.
# SPA beads are precoated with membranes and then incubated at 2 mg of beads per well with serial dilutions of compounds of the invention, [^3H]NMS at 0.1 nM, quarter Kd (experimentally determined dissociation constant) and assay buffer (20 mM HEPES pH 7.4 containing 5 mM MgCl2 and 0.1% (w/v) bovine serum albumin). The assay is conducted in a final volume of 200 μL, in the presence of 1% (v/v) dimethyl sulphoxide (DMSO). Total binding of [^3H]NMS is determined in the absence of competing compound and non-specific binding of [^3H]NMS is determined in the presence of 1 μM atropine. The plates are incubated for 16 hours at room temperature and then read on Wallac Microbeta™ using a normalised ^3H protocol. The pIC50, defined as the negative logarithm of the molar concentration of compound required for 50% reduction in specific [^3H]-NMS binding, is determined.
# Adrenergic β2 = target: T2, Adrenergic β2 (Homo sapiens, UniProt P07550); assay: Adrenergic β2 mediated cAMP production in H292 cells (AlphaScreen), concentration response; assay type: cell-based; conditions: for EC50: 60 min, 300 μM rolipram, read-out: β2 pEC50 (converted); for β2 Intrinsic Activity: fraction relative to the maximum activity determined for formoterol
# T2 construct: Adherent H292 cells are removed from tissue culture flasks by treatment with Accutase™ cell detachment solution; endogenous in cells; host or cells: H292 cells
# Procedure: Assay for Adrenergic 132 Mediated cAMP Production
# H292 cells are grown in 225 cm2 flasks incubator at 37° C., 5% CO2 in RPMI medium containing 10% (v/v) FBS (foetal bovine serum) and 2 mM L-glutamine.
# Adherent H292 cells re removed from tissue culture flasks by treatment with Accutase™ cell detachment solution for 15 minutes. Flasks are incubated for 15 minutes in a humidified incubator at 37° C., 5% CO2. Detached cells are re-suspended in RPMI media (containing 10% (v/v) FBS and 2 mM L-glutamine) at 0.1×10^6 cells per mL. 10000 cells in 100 μl, are added to each well of a tissue-culture-treated 96-well plate and the cells incubated overnight in a humidified incubator at 37° C., 5% CO2. The culture media is removed and cells are washed twice with 100 μL assay buffer and replaced with 50 μl assay buffer (HBSS solution containing 10 mM HEPES pH7.4 and 5 mM glucose). Cells are rested at room temperature for 20 minutes after which time 25 μl of rolipram (1.2 mM made up in assay buffer containing 2.4% (v/v) dimethylsulphoxide) is added. Cells are incubated with rolipram for 10 minutes after which time test compounds are added and the cells are incubated for 60 minutes at room temperature. The final rolipram concentration in the assay is 300 μM and final vehicle concentration is 1% (v/v) dimethylsulphoxide. The reaction is stopped by removing supernatants, washing once with 100 μL assay buffer and replacing with 50 μL lysis buffer. The cell monolayer is frozen at −80° C. for 30 minutes (or overnight).
# AlphaScreen™ cAMP detection
# The concentration of cAMP (cyclic adenosine monophosphate) in the cell lysate is determined using AlphaScreen™ methodology. The frozen cell plate is thawed for 20 minutes on a plate shaker then 10 μL of the cell lysate is transferred to a 96-well white plate. 40 μL of mixed AlphaScreen™ detection beads pre-incubated with biotinylated cAMP, is added to each well and the plate incubated at room temperature for 3 hours in the dark. The AlphaScreen™ signal is measured using an EnVision spectrophotometer (Perkin-Elmer Inc.) with the recommended manufacturer's settings. cAMP concentrations are determined by reference to a calibration curve determined in the same experiment using standard cAMP concentrations. Concentration response curves for agonists are constructed and data is fitted to a four parameter logistic equation to determine both the pEC50 and Intrinsic Activity. Intrinsic Activity is expressed as a fraction relative to the maximum activity determined for formoterol in each experiment.
# T2 sequence (P07550 whole entry): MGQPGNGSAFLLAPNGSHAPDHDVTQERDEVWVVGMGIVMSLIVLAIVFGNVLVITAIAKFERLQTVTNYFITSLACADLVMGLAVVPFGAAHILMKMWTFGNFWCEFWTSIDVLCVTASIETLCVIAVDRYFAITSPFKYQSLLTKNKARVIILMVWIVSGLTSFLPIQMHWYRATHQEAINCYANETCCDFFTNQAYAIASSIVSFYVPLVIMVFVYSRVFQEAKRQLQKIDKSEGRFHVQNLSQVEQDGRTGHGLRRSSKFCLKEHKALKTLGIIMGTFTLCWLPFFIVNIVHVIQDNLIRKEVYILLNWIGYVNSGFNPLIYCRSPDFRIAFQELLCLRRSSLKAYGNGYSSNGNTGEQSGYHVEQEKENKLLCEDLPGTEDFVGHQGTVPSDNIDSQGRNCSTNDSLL
# T1 sequence (P20309 whole entry): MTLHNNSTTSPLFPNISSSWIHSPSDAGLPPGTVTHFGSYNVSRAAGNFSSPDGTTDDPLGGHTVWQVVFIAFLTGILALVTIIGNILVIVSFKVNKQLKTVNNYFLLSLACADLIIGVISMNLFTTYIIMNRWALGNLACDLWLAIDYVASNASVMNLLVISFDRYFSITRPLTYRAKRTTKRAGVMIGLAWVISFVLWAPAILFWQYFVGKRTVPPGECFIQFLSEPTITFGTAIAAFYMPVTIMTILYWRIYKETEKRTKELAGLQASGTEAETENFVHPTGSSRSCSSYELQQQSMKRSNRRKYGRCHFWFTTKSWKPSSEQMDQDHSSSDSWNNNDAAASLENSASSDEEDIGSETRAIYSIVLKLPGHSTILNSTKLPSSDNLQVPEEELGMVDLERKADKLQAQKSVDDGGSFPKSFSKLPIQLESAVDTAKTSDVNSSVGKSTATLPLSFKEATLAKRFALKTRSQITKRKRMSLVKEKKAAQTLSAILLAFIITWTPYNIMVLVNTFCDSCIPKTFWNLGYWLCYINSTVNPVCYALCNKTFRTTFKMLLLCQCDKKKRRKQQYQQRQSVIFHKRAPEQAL
IC50 [1],EC50 (Adrenergic β2),β2 Intrinsic Activity (Adrenergic β2),Structure (SMILES)
2 nM,31.6 nM,0.7,"CCN(CCNCCc1ccc(O)c2[nH]c(=O)sc12)C(=O)CCOCCc1ccc(CCN2CCC3(CC2)CN(C(=O)c2csc(C(C)C)n2)CCO3)cc1 [Example 1, N-Ethyl-N-(2-(2-(4-hydroxy-2-oxo-2,3-dihydrobenzo[d]thiazol-7-yl)ethylamino)ethyl)-3-(4-(2-(4-(2-isopropylthiazole-4-carbonyl)-1-oxa-4,9-diazaspiro[5.5]undecan-9-yl)ethyl)phenethoxy)propanamide ditrifluoroacetate]"
1 nM,31.6 nM,0.9,"CC(C)c1nc(C(=O)N2CCOC3(CCN(CCc4ccc(CCOCCC(=O)N(CCNCCc5ccc(O)c6c5OCC(=O)N6)C5CCCCC5)cc4)CC3)C2)cs1 [Example 2, N-Cyclohexyl-N-(2-(2-(5-hydroxy-3-oxo-3,4-dihydro-2H-benzo[b][1,4]oxazin-8-yl)ethylamino)ethyl)-3-(4-(2-(4-(2-Isopropylthiazole-4-carbonyl)-1-oxa-4,9-diazaspiro[5.5]undecan-9-371)ethyl)phenethoxy)propanamide ditrifluoroacetate]"
1 nM,200 nM,1.0,"CCCN(CCNCCc1ccc(O)c2[nH]c(=O)sc12)C(=O)CCOCCc1ccc(CCN2CCC3(CC2)CN(C(=O)c2csc(CC)n2)CCO3)cc1 [Example 3, 3-(4-(2-(4-(2-Ethylthiazole-4-carbonyl)-1-oxa-4,9-diazaspiro[5.5]undecan-9-yl)ethyl)phenethoxy)-N-(2-(2-(4-hydroxy-2-oxo-2,3-dihydrobenzo[d]thiazol-7-yl)ethylamino)ethyl)-N-propylpropanamide ditrifluoroacetate]"
0.794 nM,25.1 nM,0.8,"CCCCN(CCNCCc1ccc(O)c2c1OCC(=O)N2)C(=O)CCOCCc1ccc(CCN2CCC3(CC2)CN(C(=O)c2csc(C(C)C)n2)CCO3)cc1 [Example 4, N-Butyl-N-(2-(2-(5-hydroxy-3-oxo-3,4-dihydro-2H-benzo[b][1,4]oxazin-8-yl)ethylamino)ethyl)-3-(4-(2-(4-(2-isopropylthiazole-4-carbonyl)-1-oxa-4,9-diazaspiro[5.5]undecan-9-yl)ethyl)phenethoxy)propanamide ditrifluoroacetate]"
0.2 nM,20 nM,0.9,"Cc1nc(C(=O)N2CCOC3(CCN(CCc4ccc(CCOCCC(=O)N(CCNCCc5ccc(O)c6c5OCC(=O)N6)C5CCCCCC5)cc4)CC3)C2)cs1 [Example 5, N-Cycloheptyl-N-(2-(2-(5-hydroxy-3-oxo-3,4-dihydro-2H-benzo[b][1,4]oxazin-8-yl)ethylamino)ethyl)-3-(4-(2-(4-(2-methylthiazole-4-carbonyl)-1-oxa-4,9-diazaspiro[5.5]undecan-9-yl)ethyl)phenethoxy)propanamide ditrifluoroacetate]"
0.1 nM,31.6 nM,1.0,"CCCC[C@@H](C)N(CCNCCc1ccc(O)c2c1OCC(=O)N2)C(=O)CCOCCc1ccc(CCN2CCC3(CC2)CN(C(=O)c2csc(C)n2)CCO3)cc1 [Example 6, (R)—N-(Hexan-2-yl)-N-(2-(2-(5-hydroxy-3-oxo-3,4-dihydro-2H-benzo[b][1,4]oxazin-8-yl)ethylamino)ethyl)-3-(4-(2-(4-(2-methylthiazole-4-carbonyl)-1-oxa-4,9-diazaspiro[5.5]undecan-9-yl)ethyl)phenethoxy)propanamide ditrifluoroacetate]"
0.501 nM,–,–,"CCc1nc(C(=O)N2CCOC3(CCN(Cc4cccc(CCOCCC(=O)N(CCNCCc5ccc(O)c6c5OCC(=O)N6)C5CCCC5)c4Cl)CC3)C2)cs1 [Example 33a, 3-(2-chloro-3-((4-(2-ethylthiazole-4-carbonyl)-1-oxa-4,9-diazaspiro[5.5]undecan-9-yl)methyl)phenethoxy)-N-cyclopentyl-N-(2-(2-(5-hydroxy-3-oxo-3,4-dihydro-2H-benzo[b][1,4]oxazin-8-yl)ethylamino)ethyl)propanamide, sulphate salt]"
